The experiment concerns the target full-length recombinant human FYN A (Homo sapiens (Human), UniProt P06241). The experiment can be described thus: ADP-Glo Kinase Assay of FYN kinase inhibition. It counts as biochemical. Conditions: secondary screen, re-synthesized and expanded compounds. In outline: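 GST-tagged full-length FYN A (baculovirus, Sf9) at 3 pg preincubated 30 min RT with compound (10-point 3-fold series from 10 μM) in Tris pH 7.5/MgCl2 buffer. 12-mer tyrosine peptide plus 12.5 pmol ATP added, 90 min RT; ADP measured by ADP-Glo luminescence, IC50 from dose-response.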
full-length recombinant human FYN A, sequence (P06241 whole entry): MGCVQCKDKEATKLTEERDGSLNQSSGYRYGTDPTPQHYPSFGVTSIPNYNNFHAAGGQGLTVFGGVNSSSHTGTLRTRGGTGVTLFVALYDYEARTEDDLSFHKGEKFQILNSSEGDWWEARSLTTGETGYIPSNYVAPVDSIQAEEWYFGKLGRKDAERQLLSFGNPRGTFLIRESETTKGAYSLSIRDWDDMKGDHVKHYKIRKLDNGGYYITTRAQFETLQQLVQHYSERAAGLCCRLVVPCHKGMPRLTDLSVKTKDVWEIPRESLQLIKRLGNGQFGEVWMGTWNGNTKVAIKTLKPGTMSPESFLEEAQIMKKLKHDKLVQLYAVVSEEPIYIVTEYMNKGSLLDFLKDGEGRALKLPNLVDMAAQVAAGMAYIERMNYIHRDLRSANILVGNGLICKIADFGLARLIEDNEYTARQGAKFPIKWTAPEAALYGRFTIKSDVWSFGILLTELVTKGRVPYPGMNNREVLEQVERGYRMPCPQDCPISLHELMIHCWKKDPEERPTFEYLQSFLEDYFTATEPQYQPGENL
In the case of `COc1cc(-c2cc(-c3ccc(C(N)=O)cc3)cnc2N)cc(OC)c1OC` [BF000312540, 4-[6-amino-5-(3,4,5-trimethoxy-phenyl)-3-pyridyl]-benzamide], the IC50 stood at 458 nM.

As for `COc1cc(-c2cc(-c3ccc(C(=O)NC4CC4)cc3)cnc2N)cc(OC)c1OC` [BF000312541, 4-[6-amino-5-(3,4,5-trimethoxy-phenyl)-3-pyridyl]-N-cyclopropyl-benzamide], the IC50 was 377 nM.

Take `COc1cc(-c2cc(-c3cccc(C(=O)NCCO)c3)cnc2N)cc(OC)c1OC` [BF000312542, 3-[6-amino-5-(3,4,5-trimethoxy-phenyl)-3-pyridyl]-N-(2-hydroxy-ethyl)-benzamide]: the IC50 turned out to be 1000 nM.

Consider `COc1cc(-c2cc(-c3ccc(S(C)(=O)=O)cc3)cnc2N)cc(OC)c1OC` [BF000312544, 5-(4-methyl-sulfonyl-phenyl)-3-(3,4,5-trimethoxy-phenyl)-pyridin-2-amine], for which the concentration for half-maximal inhibition (IC50) came to 674 nM.

For the compound `COc1cc(-c2cc(-c3cccc(NS(C)(=O)=O)c3)cnc2N)cc(OC)c1OC` [BF000312545, N-[3-[6-amino-5-(3,4,5-trimethoxy-phenyl)-3-pyridyl]-phenyl]-methane-sulfonamide], the half-inhibitory concentration (IC50) turned out to be 562 nM.

On to `COc1cc(-c2cc(-c3ccc(N4CCN(C)CC4)cc3)cnc2N)ccc1O` [BF000313028, 4-[2-amino-5-[4-(4-methylpiperazin-1-yl)phenyl]-3-pyridyl]-2-methoxy-phenol], for which the IC50 is 121 nM.

Turning to `COc1cc(-c2cc(-c3cc(OC)c(OC)c(OC)c3)cnc2N)ccc1O` [BF000313035, 4-[2-amino-5-(3,4,5-trimethoxy-phenyl)-3-pyridyl]-2-methoxy-phenol], the IC50 is 116 nM.

Consider `COc1cc(-c2cc(-c3ccc(C(N)=O)cc3)cnc2N)ccc1O` [BF000313038, 4-[6-amino-5-(4-hydroxy-3-methoxy-phenyl)-3-pyridyl]-benzamide], for which the 50% inhibitory concentration (IC50) turned out to be 214 nM.

In the case of `COc1cc(-c2cc(-c3ccc(S(C)(=O)=O)cc3)cnc2N)ccc1O` [BF000313040, 4-[2-amino-5-(4-methyl-sulfolyl-phenyl)-3-pyridyl]-2-methoxy-phenol], the IC50 was determined as 316 nM.

`COc1cc(-c2cnc(N)c(-c3ccc(O)cc3)c2)cc(OC)c1OC` [BF000313556, 4-[2-amino-5-(3,4,5-trimethoxy-phenyl)-3-pyridyl]-phenol]: the half-maximal inhibitory concentration (IC50) was found to be 288 nM.

Consider `NC(=O)c1ccc(-c2cnc(N)c(-c3ccc(O)cc3)c2)cc1` [BF000313559, 4-[6-amino-5-(4-hydroxy-phenyl)-3-pyridyl]-benzamide], for which the IC50 amounted to 1090 nM.

Turning to `CC(=O)Nc1cccc(-c2cnc(N)c(-c3ccc(O)cc3)c2)c1` [BF000313562, N-[3-[6-amino-5-(4-hydroxy-phenyl)-3-pyridyl]-phenyl]-acetamide], the half-maximal inhibitory concentration (IC50) was 898 nM.

For `CS(=O)(=O)c1ccc(-c2cnc(N)c(-c3ccc(O)cc3)c2)cc1` [BF000313563, 4-[2-amino-5-(4-methyl-sulfonyl-phenyl)-3-pyridyl)-phenol], the concentration for half-maximal inhibition (IC50) is 1550 nM.

Consider `CN(C)C(=O)c1cccc(-c2cn3c(-c4ccc(O)cc4)cnc3cn2)c1` [BF000333343, 3-[3-(4-hydroxy-phenyl)-imidazo[1,2-a]pyrazin-6-yl]-N,N-dimethyl-benzamide], for which the IC50 worked out at 871 nM.

As for `COc1cc(-c2cnc3cnc(-c4cnn(C)c4)cn23)ccc1O` [BF000333452, 2-methoxy-4-[6-(1-methyl-pyrazol-4-yl)-imidazo[1,2-a]pyrazin-3-yl]phenol], the IC50 came out at 624 nM.

On to `CN(C)CCCNC(=O)c1ccc(-c2cn3c(-c4ccc(O)cc4)cnc3cn2)cc1` [BF000333874, N-[3-(dimethyl-amino)-propyl]-4-[3-(4-hydroxy-phenyl)-imidazo[1,2-a]pyrazin-6-yl]-benzamide], for which the half-inhibitory concentration (IC50) came to 705 nM.

In the case of `CN1CCN(c2ccc(-c3cn4c(-c5ccc(O)cc5)cnc4cn3)cc2)CC1` [BF000333878, 4-[6-[4-(4-methyl-piperazin-1-yl)phenyl]-imidazo[1,2-a]pyrazin-3-yl]phenol], the IC50 worked out at 465 nM.

Consider `CN(C)CCNC(=O)c1ccc(-c2cn3c(-c4ccc(O)cc4)cnc3cn2)cc1` [BF000333881, N-[2-(dimethyl-amino)-ethyl]-4-[3-(4-hydroxy-phenyl)-imidazo[1,2-a]pyrazin-6-yl]-benzamide], for which the IC50 turned out to be 486 nM.

Consider `O=C(NCCO)c1ccc(-c2cn3c(-c4ccc(O)cc4)cnc3cn2)cc1` [BF000333882, N-(2-hydroxy-ethyl)-4-[3-(4-hydroxy-phenyl)-imidazo[1,2-a]pyrazin-6-yl]benzamide], for which the IC50 was found to be 740 nM.

On to `COc1cc(-c2cnc3cnc(-c4ccc(C(=O)NCCCN(C)C)cc4)cn23)ccc1O` [BF000334019, N-[3-(dimethyl-amino)-propyl]-4-[3-(4-hydroxy-3-methoxy-phenyl)-imidazo[1,2-a]pyrazin-6-yl]benzamide], for which the half-inhibitory concentration (IC50) worked out at 647 nM.

Regarding `COc1cc(-c2cnc3cnc(-c4cccc(C(=O)NCCO)c4)cn23)ccc1O` [BF000334020, N-(2-hydroxy-ethyl)-3-[3-(4-hydroxy-3-methoxy-phenyl)-imidazo[1,2-a]pyrazin-6-yl]benzamide], the IC50 was 1280 nM.

Turning to `COc1cc(-c2cnc3cnc(-c4ccc(C(=O)NCCN(C)C)cc4)cn23)ccc1O` [BF000334023, N-[2-(dimethyl-amino)ethyl]-4-[3-(4-hydroxy-3-methoxy-phenyl)-imidazo[1,2-a]pyrazin-6-yl]benzamide], the half-inhibitory concentration (IC50) came to 337 nM.

On to `CN(C)CCNC(=O)c1ccc(-c2cn3c(-c4ccc(Oc5ccccc5)cc4)cnc3cn2)cc1` [BF000334031, N-[2-(dimethyl-amino)ethyl]-4-[3-(4-phenoxy-phenyl)-imidazo[1,2-a]pyrazin-6-yl]-benzamide], for which the IC50 came to 222 nM.

For the compound `O=C(NCCO)c1ccc(-c2cn3c(-c4ccc(Oc5ccccc5)cc4)cnc3cn2)cc1` [BF000334032, N-(2-hydroxy-ethyl)-4-[3-(4-phenoxy-phenyl)-imidazo-[1,2-a]-pyrazin-6-yl]benzamide], the half-maximal inhibitory concentration (IC50) was determined as 464 nM.

On to `COc1cc(-c2cc(-c3ccc(N4CCNCC4)cc3)cnc2N)ccc1O` [BF000707279, 4-[2-amino-5-(4-piperazin-1-ylphenyl)-3-pyridyl]-2-methoxy-phenol], for which the IC50 was found to be 60.9 nM.

For the compound `CN1CCN(c2ccc(-c3cnc(N)c(-c4ccc(O)cc4)c3)cc2)CC1` [BF000710044, 4-[2-amino-5-[4-(4-methyl-piperazin-1-yl)phenyl]-3-pyridyl]-phenol], the 50% inhibitory concentration (IC50) worked out at 521 nM.

For the compound `c1ccc(CNc2nn3c(-c4cccnc4)cnc3s2)cc1` [BF000714845, N-benzyl-5-(3-pyridyl)-imidazo[2,1-b][1,3,4]-thiadiazol-2-amine], the IC50 turned out to be 634 nM.

In the case of `CN(C)C(=O)c1cccc(-c2cnc3sc(NCc4ccccc4)nn23)c1` [BF000714847, 3-[2-(benzyl-amino)-imidazo[2,1-b][1,3,4]-thiadiazol-5-yl]-N,N-dimethyl-benzamide], the IC50 was determined as 1230 nM.

For `COc1cncc(-c2cnc3sc(NCc4ccccc4)nn23)c1` [BF000714862, N-benzyl-5-(5-methoxy-3-pyridyl)-imidazo[2,1-b][1,3,4]-thiadiazol-2-amine], the half-maximal inhibitory concentration (IC50) is 217 nM.

`COc1cncc(-c2cnc3sc(NCC4CCOCC4)nn23)c1` [BF000714923, 5-(5-methoxy-3-pyridyl)-N-(tetra-hydropyran-4-ylmethyl)-imidazo[2,1-b][1,3,4]-thiadiazol-2-amine]: the IC50 stood at 293 nM.

For the compound `COc1cncc(-c2cnc3sc(NCc4cccs4)nn23)c1` [BF000714968, 5-(5-methoxy-3-pyridyl)-N-(2-thienyl-methyl)-imidazo[2,1-b][1,3,4]-thiadiazol-2-amine], the half-inhibitory concentration (IC50) came out at 437 nM.

As to `COc1cncc(-c2cnc3sc(NCc4ccc5c(c4)OCO5)nn23)c1` [BF000714981, N-(1,3-benzodioxol-5-ylmethyl)-5-(5-methoxy-3-pyridyl)-imidazo[2,1-b][1,3,4]-thiadiazol-2-amine], the IC50 worked out at 289 nM.

`CN(C)C(=O)c1cccc(-c2cnc3sc(NCC4CCOCC4)nn23)c1` [BF000715802, N,N-dimethyl-3-[2-(tetra-hydropyran-4-ylmethyl-amino)-imidazo[2,1-b][1,3,4]-thiadiazol-5-yl]benzamide]: the IC50 is 1360 nM.

As to `COc1ccc(-c2cnc3sc(NC4CCC(O)CC4)nn23)cc1OC` (centres unmarked) [BF000717406, 4-[[5-(3,4-dimethoxy-phenyl)-imidazo[2,1-b][1,3,4]-thiadiazol-2-yl]amino]-cyclohexanol], the IC50 worked out at 440 nM.

Turning to `CN(C)C(=O)c1cccc(-c2cnc3sc(NC4CCC(O)CC4)nn23)c1` (centres unmarked) [BF000717418, 3-[2-[(4-hydroxy-cyclohexyl)-amino]-imidazo[2,1-b][1,3,4]-thiadiazol-5-yl]-N,N-dimethyl-benzamide], the IC50 came to 288 nM.

For the compound `COc1cc(-c2cnc3sc(NCC4CCOCC4)nn23)ccc1O` [BF000717555, 2-methoxy-4-[2-(tetrahydro-pyran-4-ylmethyl-amino)-imidazo[2,1-b][1,3,4]-thiadiazol-5-yl]phenol], the half-inhibitory concentration (IC50) came to 710 nM.

For `OCCCNc1ccc2ncc(-c3ccncc3)n2n1` [BF000722253, 3-[[3-(4-pyridyl)-imidazo[1,2-b]pyridazin-6-yl]amino]-propan-1-ol], the IC50 worked out at 538 nM.

Take `COc1cc(-c2ccc3ncc(-c4cccc(NC(C)=O)c4)n3n2)ccc1O` [BF000726183, N-(3-[6-(4-hydroxy-3-methoxy-phenyl)-imidazo[1,2-b]pyridazin-3-yl]phenyl]-acatamide]: the IC50 came to 167 nM.

As for `OCc1cccc(-c2cnc3ccc(-c4cccc(O)c4)nn23)c1` [BF000726195], the IC50 was found to be 1170 nM.

With `COc1ccc(-c2ccc3ncc(-c4cccc(NC(C)=O)c4)n3n2)cc1OC` [BF000726345, N-[3-[6-(3,4-dimethoxy-phenyl)-imidazo[1,2-a]pyridazin-3-yl]phenyl]-acatamide], the IC50 came to 313 nM.

On to `CC(=O)Nc1cccc(-c2ccc3ncc(-c4cccc(NC(C)=O)c4)n3n2)c1` [BF000726346, N-[3-[3-(3-acetamido-phenyl)-imidazo[1,2-b]pyridazin-6-yl]phenyl]-acetamide], for which the half-inhibitory concentration (IC50) was determined as 648 nM.

(Values after patent publication US10688093B2, “Methods, compositions, and uses of novel Fyn kinase inhibitors” (priority 2015, dated 2020).)
